Test results taken from patent US10500178B2, “LTB4 inhibition to prevent and treat human lymphedema” (The Board of Trustees of the Leland Stanford Junior …, priority 2015, dated 2019).
Each block holds one compound with its values, some of them ahead of it.

How the values were obtained:
[1] = system: acquired lymphedema surgically induced in the tails of female C57BL/6J mice; assay: mouse-tail model of acquired lymphedema (tail volume, histology); type: in vivo; conditions: for amelioration of lymphedema (serial tail-volume measurements over 24d): therapies started on post-surgery d3 (late LTB4 antagonism)
Description: Surgical induction of experimental lymphatic vascular insufficiency. […] Briefly, a full-thickness circumferential incision of the skin was made 16 mm distal to the base of the mouse tail under anesthesia. Lymphatic trunks were ablated through controlled, limited cautery application under the surgical microscope. For surgical controls (sham animals), the skin incision alone was performed without lymphatic cautery.
(§1) All small molecule drugs were administered through daily intraperitoneal injection.
Tail volume quantitation. Tail-volume measurements at each designated time were quantified by observers blinded to the treatment status of the subjects. Tail volumes were calculated through a digital photographic technique pre-operatively, and post-operatively (d3, d9, d14, d20, and d24), using an Olympus D520 Zoom digital camera at SHQ resolution at a fixed distance from the subject (37 cm), as previously described. Tail volumes were derived from the measurement of the tail diameter using the truncated cone approximation. Microlymphangiography was performed by injecting FITC-dextran (size: 2000 kDa) subcutaneously into mouse tails on post-surgery d24. Images were taken 20 minutes after injection.
Viral particles were mixed with Lipofectamine 2,000 (5% final vol/vol, Invitrogen) before injection, to increase transduction efficiency. qRT-PCR, immunofluorescence and fluorescence in situ hybridization were used to evaluate the silencing efficiency in the mouse tail skin 24d after surgery.

VEGFR3, Vegfc, Vegfd = assay: lymphangiogenic factor levels in HLECs (qRT-PCR, Western blot); type: cell-based, human; conditions: 400 nM LTB4, 100 ng/ml S1P, 25 μM DAPT
Description: (§2) Western Blot HLECs were lysed with RIPA buffer containing protease and phosphatase inhibitors. Lysates were sonicated briefly and centrifuged. The supernatant was collected and protein concentration was determined by BCA assay. 60 µg of protein were resolved on a 10% SDS-PAGE gel, transferred to a nitrocellulose membrane, blocked with 5% milk and probed with one of the following antibodies: anti-Sphk1 (3297,Cell Signaling); antip-Sphk1(SP1641, ECM Biosciences); anti-NICD (ab8925,Abcam), anti-VEGFR3 (AF743,R&D); anti-DLL4 (ab7280, Abcam). Actin was used to normalize the total protein. Immunofluorescence Immunofluorescence staining was performed using the following primary antibodies: anti-5-LO (3289, Cell Signaling); anti-MPO (ab45977, Abcam); Anti-CD68 (ab22506, Abcam); anti-Prox1(ab101851, Abcam); anti-NICD (ab8925, Abcam), anti-EphrinB2 (AF496,R&D); anti-VEGFR3 (AF743,R&D); anti-Hey1(ab22614, Abcam); Alexa-Fluor-555 Phalloidin (8953,Cell Signaling); anti-DIG(11093274910, Sigma-Aldrich). Negative controls with isotype IgG were run in parallel. Images were acquired by Zeiss 710 confocal microscopy and analyzed using ImageJ software.
Quantitative RT-PCR. Quantitative PCR (qRT-PCR) was performed using FastStart SYBR Green (Roche) on a Lightcycler 480. mRNA expression relative to GAPDH mRNA levels were calculated using the delta-delta threshold cycle (ΔΔCT) method. PCR microarrays were purchased from Qiagen: RT2 Profiler PCR Array 384-Well Format, Mouse Angiogenesis PAMM-024ZA) and VEGF Signaling (330231 PAMM-091ZA). […]

HLECs [2] = assay: HLEC lymphangiogenesis (tube formation, migration, wound healing, sprouting); type: cell-based, human; conditions: for HLEC lymphangiogenesis in the presence of S1P, shS1pr1, shDll4 or DAPT: LTB4-impaired or S1P-treated HLEC cultures
Description: Tube formation assay. Matrigel (BD Matrigel Basement Membrane Matrix Growth Factor Reduced, Phenol Red Free) was thawed on ice overnight, dispersed into 48-well plates (100 μl per well) and allowed to polymerize for 30 minutes at 37° C. Serum starved HLECs were seeded on the Matrigel at a density of 1×10^4 cells per well. Images of four representative fields were taken 10 hrs later. ImageJ software was used to determine total cellular cord length. Migration assay. Cellular migration was evaluated using a modified Boyden chamber assay. Briefly, 2×10^4 serum-starved HLECs in 250 μl serum free medium were seeded in the upper chamber of the trans-well. 750 μl of serum free ECM containing various drugs was placed in the lower chamber. Ten hours later, migrated cells were stained with a modified Giemsa solution (Sigma-Aldrich) for quantification. Wound healing assay. 6×10^5 HLECs were seeded on an Easy Slide (Millipore) the day before the experiment and allowed to form a fully confluent monolayer, and then cells were serum starved for 12 hrs. A 200 μl pipet tip was used to scratch a straight line across the middle of the cell monolayer. Cell debris was removed through PBS washing. Images were taken immediately after the scratch and the same windows were imaged again 12 hrs later. The rate of cell migration was calculated as the average percent wound closure from at least 5 independent experiments using ImageJ software. Fibrin gel sprouting assay. HLECs were first coated overnight onto the Cytodex-3 beads with an approximate concentration of 400 cells per bead. On the following day, the microbeads were transferred to 2.0 mg/ml fibrinogen solution containing 0.15 units/ml of aprotinin. Later, 0.625 units/ml thrombin was added to the mixture to gelatinize the fibrin gel. Endothelial sprouts (vessel outgrowth) were observed within 3 days of culture using phase micrographic images and quantified as number of vessels per bead.

HLECs [3] = assay: tube formation assay on Matrigel; type: cell-based, human; conditions: 400 nM LTB4; 10 μM U75302+LTB4
Description: Tube formation assay. Matrigel (BD Matrigel Basement Membrane Matrix Growth Factor Reduced, Phenol Red Free) was thawed on ice overnight, dispersed into 48-well plates (100 μl per well) and allowed to polymerize for 30 minutes at 37° C. Serum starved HLECs were seeded on the Matrigel at a density of 1×10^4 cells per well. Images of four representative fields were taken 10 hrs later. […]

HLECs [4] = assay: trans-well migration assay; type: cell-based, human; conditions: 400 nM LTB4
Description: Migration assay. Cellular migration was evaluated using a modified Boyden chamber assay. Briefly, 2×10^4 serum-starved HLECs in 250 μl serum free medium were seeded in the upper chamber of the trans-well. 750 μl of serum free ECM containing various drugs was placed in the lower chamber. Ten hours later, migrated cells were stained with a modified Giemsa solution (Sigma-Aldrich) for quantification.

HLECs [5] = assay: fibrin gel sprouting assay; type: cell-based, human; conditions: 400 nM LTB4
Description: Fibrin gel sprouting assay. HLECs were first coated overnight onto the Cytodex-3 beads with an approximate concentration of 400 cells per bead. On the following day, the microbeads were transferred to 2.0 mg/ml fibrinogen solution containing 0.15 units/ml of aprotinin. Later, 0.625 units/ml thrombin was added to the mixture to gelatinize the fibrin gel. Endothelial sprouts (vessel outgrowth) were observed within 3 days of culture using phase micrographic images and quantified as number of vessels per bead.

HLECs [6] = assay: LTB4-mediated HLEC apoptosis; type: cell-based, human
[7] = system: lymphatic vessel formation; assay: Matrigel plug assay (LYVE1, VEGFR3 staining); type: in vivo, mouse; conditions: Matrigel plugs in SCID mice
Description: Matrigel plug assay. SCID mice (NOD.Cg-Prkdcscid I/2rgtmlWjl/SzJ, The Jackson Laboratory) of 4-6 weeks of age were used for Matrigel plug injection. Two 250 μl Matrigel plugs were subcutaneously injected into the dorsal surface of the mice. Plugs were recovered with the adjacent subcutaneous tissue 14d later. Tissue was then embedded in paraffin and sectioned for staining.

p-Sphk1 = assay: Western blot of p-SphK1 in HLECs; type: cell-based, human; conditions: exogenous LTB4 (400 nM)
Description: as §2

Notch (NICD, DLL4) = assay: Western blot of NICD and DLL4 in HLECs; type: cell-based, human
Description: as §2

[8] = system: Notch transcriptional activity; assay: CSL luciferase reporter assay in HLECs; type: cell-based, human
Description: pG13-6-CSL luciferase assay. CSL reporter activity was determined as described previously. HLECs (5.0×105) were […] and transfected with both 1 μg CSL luciferase reporter ([…]) and 10 ng Renilla luciferase pRL-SV40 (Promega) using Nucleofactor (Lonza). Luciferase and Renilla activity were then determined with Dual-Luciferase® Reporter Assay System (Promega) and Berthold dual-injection illuminometer.

HLECs [9] = assay: NICD and filopodia histology of HLECs; type: cell-based, human
Description: as §2

LTB4 = assay: serum LTB4 levels in lymphedema mice; type: in vivo, mouse; conditions: therapies initiated on d3, assessed on d24
Description: as §1
Quantification of LTB4, PGE2 and S1P with LC-MS/MS. Briefly, LTB4, PGE2 and S1P were separated from serum with an ACE reverse phase C18 HPLC column. Formic acid 0.5% in 5 mM NH4Ac (A) and formic acid 0.5% in acetonitrile/water (9/1) (B) were used as the mobile phase. […] The internal standard of this method was Carbutamide. The quantification limit was 1 ng/ml. The calibration range was 1-2000 ng/ml.

Compound: C[C@H](NC(=O)Cc1cc(F)cc(F)c1)C(=O)N[C@H](C(=O)OC(C)(C)C)c1ccccc1 [DAPT]
effect of adding DAPT to bestatin-therapy in lymphedema ([1]; DAPT 30 mg/kg added to bestatin 4 mg/kg): abrogated the therapeutic benefit of bestatin
VEGFR3 expression and Vegfc, Vegfd transcription (VEGFR3, Vegfc, Vegfd): inhibited
HLEC lymphangiogenesis in the presence of S1P, shS1pr1, shDll4 or DAPT (HLECs [2]): did not abrogate lymphangiogenesis entirely

reduction of reporter activity ([8]; physiologic (400 nM) levels of LTB4): > 50%
Compound: CCCCC/C=C\C[C@@H](O)/C=C/C=C/C=C\[C@@H](O)CCCC(=O)O [LTB4, leukotriene B4]
tube formation (tube area) (HLECs [3]): decreased tube area
HLEC migration (HLECs [4]): inhibited HLEC migration
sprout formation in 3D-fibrin-gel assay (HLECs [5]): preventing them from forming sprouts
LEC apoptosis (HLECs [6]): induced LEC apoptosis in a concentration-dependent manner
VEGFR3 expression of HLECs in vivo [7]: inhibited the VEGFR3 expression
lymphatic vessel formation in vivo ([7]; recovered 14d later): attenuated lymphatic vessel formation
p-Sphk1 in HLECs (p-Sphk1): diminished p-Sphk1
VEGFR3 expression and Vegfc, Vegfd transcription (VEGFR3, Vegfc, Vegfd): reduced
cleaved Notch (NICD) and DLL4 levels (Notch (NICD, DLL4)): decreased
Notch transcriptional activity (CSL reporter), in words ([8]; LTB4 100-800 nm for 24 h): inhibited Notch transcriptional activity in a dose dependent fashion
filopodia, nuclear-localized NICD and EphrinB2, cell shape (HLECs [9]): increased filopodia and less nuclear-localized NICD and EphrinB2
concentration dependence of lymphangiogenesis block (HLECs [2]; 100 nm, 200 nm, 400 nm or 800 nm LTB4): blocked lymphangiogenesis in a concentration-dependent manner

Compound: CCCc1c(OCCCOc2cc(O)c(-c3ccc(F)cc3)cc2CC)cccc1Oc1ccccc1C(=O)O [Ly293111, 2-[2-propyl-3-[3-[2-ethyl-4-(4-fluorophenyl)-5-hydroxyphenoxy]-propoxy]phenoxy]benzoic acid]
benefit of LTB4 antagonism administered prior to surgery ([1]; therapies administered prior to sham and lymphedema surgery (bestatin, Ly293111 from d0, shLtb4r1 on d(−7))): not beneficial
amelioration of lymphedema (serial tail-volume measurements over 24d) [1]: demonstrated therapeutic amelioration of lymphedema

Compound: CCCCCCCCCCCCC/C=C/[C@@H](O)[C@@H](N)COP(=O)(O)O [S1P, sphingosine-1-phosphate]
VEGFR3 expression and Vegfc, Vegfd transcription (VEGFR3, Vegfc, Vegfd): increased the expression of these factors
cleaved Notch (NICD) and DLL4 levels (Notch (NICD, DLL4)): increased levels
increase of reporter activity from base line ([8]; S1P): 3 fold
filopodia, nuclear-localized NICD and EphrinB2, cell shape (HLECs [9]): unified stalk-cell shape and enhanced nuclear localization
HLEC lymphangiogenesis in the presence of S1P, shS1pr1, shDll4 or DAPT (HLECs [2]): restored the abnormal HLEC migration, differentiation, sprouting, and vessel formation caused by LTB4

Compound: CCCCC/C=C\C[C@@H](O)/C=C/c1cccc(C[C@@H](O)CCCCO)n1 [U75302]
tube formation (tube area) (HLECs [3]): normalized tube formation

Compound: CC(C)Cc1ccc(C(C)C(=O)O)cc1 (centres unmarked) [ibuprofen]
tail swelling ([1]; therapies initiated on d3): not
tail histology (edema, epidermal/dermal junction) ([1]; treatment from d3): unresolved edema, irregular epidermal/dermal junction

Compound: CC(C(=O)O)c1cccc(C(=O)c2ccccc2)c1 (centres unmarked) [ketoprofen]
serum LTB4 levels (LTB4): effectively reduced

Compound: CC(c1cc2ccccc2s1)N(O)C(N)=O (centres unmarked) [zileuton, 1-[1-(1-benzothiophen-2-yl)ethyl]-1-hydroxyurea]
amelioration of lymphedema (serial tail-volume measurements over 24d) [1]: demonstrated therapeutic amelioration of lymphedema
serum LTB4 levels (LTB4): effectively reduced
